Paper PMC8924238, “Mapping the sequence specificity of heterotypic amyloid interactions enables the identification of aggregation modifiers” (Nature Communications, 2022)
“Also recorded” adds a separate entry of the source. Residues, ends and D or L forms follow the SMILES beside them.

What was measured:
[1] = molecular target: T1, VQIVYK (PHF6) APR from tau (Homo sapiens, UniProt P10636); assay: Th-T aggregation kinetics of VQIVYK with sub-stoichiometric variant peptides (1:5) or CAP1; assay type: biochemical; conditions: Fig. 8c
T1 construct: The VQIVYK (PHF6) stretch, located in the C-terminal repeat domain of tau; made in house; host or cells: chemical solid phase peptide synthesis (no expression host)
Source text: To experimentally investigate these calculations, we synthesised a library of 90 peptides corresponding to 78% of all single amino acid substitutions of the VQIVYK APR. We excluded introduction of cysteines to avoid further complexity introduced by the formation of intermolecular disulphides and also avoided substitutions of the Tyr residue at position five, since it enables fast and accurate readout of peptide concentration. First, peptide:APR mixtures were monitored using Th-T aggregation kinetic assays. For this screen, we used sub-stoichiometric mixtures of the variant peptides against PHF6 (1:5 analogy). The reasoning behind this was that it enabled tracing of subtle differences in aggregation kinetics, while at the same time reduced the propensity of most variants to participate in self-assembly. […] For the rest, following curve fitting of the monitored Th-T curves (Figs. 5a, b and S4), we calculated and summarised fold changes of aggregation half-times (t1/2) in a volcano plot, with the negative logarithm of the p-values represented on the vertical axis (Fig. 5c). […] It should be noted, however, that changes in fluorescence intensity can also potentially reflect morphological differentiation of the produced fibrils that can affect Th-T binding. […]

[2] = molecular target: T2, recombinant full-length tau (tau^2N4R) (Homo sapiens, UniProt P10636); assay: Th-T kinetics of heparin-induced aggregation of recombinant full-length tau; assay type: biochemical; conditions: Fig. 8d
T2 construct: Recombinant full-length tau (tau^2N4R) was produced following previous established protocols; made in house
T2 sequence (P10636 1-441 isoform P10636-8): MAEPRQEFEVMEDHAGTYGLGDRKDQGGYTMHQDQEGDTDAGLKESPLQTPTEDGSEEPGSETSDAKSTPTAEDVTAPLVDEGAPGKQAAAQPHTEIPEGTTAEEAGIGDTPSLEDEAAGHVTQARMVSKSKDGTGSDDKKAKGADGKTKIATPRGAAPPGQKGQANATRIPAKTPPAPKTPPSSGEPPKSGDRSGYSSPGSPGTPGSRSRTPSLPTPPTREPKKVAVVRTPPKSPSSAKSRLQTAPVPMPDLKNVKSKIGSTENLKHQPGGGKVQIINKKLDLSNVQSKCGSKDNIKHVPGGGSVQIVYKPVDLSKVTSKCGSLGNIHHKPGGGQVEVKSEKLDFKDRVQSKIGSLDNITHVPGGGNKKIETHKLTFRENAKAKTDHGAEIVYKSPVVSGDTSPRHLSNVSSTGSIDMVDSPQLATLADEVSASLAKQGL
Description: Recombinant full-length tau (tau^2N4R) was produced following previous established protocols. Lyophilised protein aliquots were freshly dissolved in 10 mM HEPES pH 7.4 supplemented with 100 mM NaCl at a final concentration of 10 μM. After filtration, using […] PVDF filters, the protein solution was spiked with 5 μ μM of heparin (Sigma) and aggregation was monitored by adding 25 μM of Th-T in half-area black 96-well microplates (Corning, USA). Fluorescence was measured in triplicates, using a FluoStar Omega plate reader (BMG Labtech, Germany) at 37 °C, equipped with an excitation filter at 440 nm and emission filter at 490 nm. To generate seeds, endpoint amyloid fibrils were sonicated for 15 min (30 s on, 30 s off) at 10 °C, using a Bioruptor Pico sonication device (Diagenode).

ATTO633-monomeric tau = molecular target: T3, ATTO633-monomeric tau (Homo sapiens, UniProt P10636); assay: Microscale thermophoresis, monomeric rTau; assay type: binding; conditions: MST, 25 nM ATTO633-monomeric tau, CAP1 titrated from 50 μM; n = 3
T3 construct: heparin-induced aggregation of recombinant full-length tau (rTau); made in house
T3 sequence (P10636 1-441 isoform P10636-8): as above
Description: MST measurements were performed to calculate binding affinities. Monomeric tau was labelled using amine reactive ATTO633 (ATTO633-NHS), following the manufacturer guidelines. Labelled tau aggregates were prepared using a 1:9 analogy of labelled to unlabelled monomeric tau, following the same aggregation protocol described for the unlabelled protein. 25 nM of ATTO633-monomeric tau or ATTO633-tau seeds were mixed against the CAP1 inhibitor, which was dissolved and titrated down starting from 50 μM, in tau buffer (HEPES 10 mM, 100 mM NaCl). Measurements were recorded on a Monolith NT automated instrument (NanoTemper Technologies GmbH, Germany) with a red-laser channel at 5% LED excitation power and medium MST power at ambient conditions. Affinity constants and experimental data fitting was performed using the NanoTemper analysis software (v2.2.4) and results were depicted as differentials between the bound and unbound state after baseline subtraction (ΔFnorm) over inhibitor concentration in the logarithmic scale.

[3] = system: HEK293 Tau^RD-P301S-CFP/YFP expressing biosensor cells; assay: Seeding inhibition in FRET tau biosensor cells, AD brain extracts; assay type: cell-based, human; conditions: CAP1 500 nM pre-treatment, extracts diluted 500x, three patients in duplicates, n = 6
Source text: Ethical approval to access and work on the human tissue samples was given by the UZ Leuven ethical committee (Leuven/Belgium; File-No. S63759). An informed consent for autopsy and scientific use of autopsy tissue with clinical information was granted from all subjects involved. Following approval, brain tissue from autopsy cases was received from UZ/KU Leuven Biobank. Sarkosyl-insoluble material was extracted from cortex tissue of three individual patients with Alzheimer’s disease (designated here as A1–A3, Supplementary Table 3), as shown previously. Briefly, the tissue was homogenised with a FastPrep (MP Biomedicals) in 10 volumes (w/v) cold buffer consisting of 10 mM Tris-HCl pH 7.4, 0.8 M NaCl, 1 mM EGTA and 10% sucrose, followed by centrifugation at 20,000 × g for 20 min at 4 °C. Universal Nuclease (Pierce) was added to the supernatant, followed by a 30 min incubation at room temperature. The sample was then brought to 1% Sarkosyl (Sigma) and incubated for 1 h at room temperature while shaking (400 rpm), followed by centrifugation at 350,000 × g for 1 h at 4 °C. The pellet was washed once, resuspended in 50 mM Tris-HCl pH 7.4 (175 mg of starting material per 100 µl) and stored at −80 °C. […]

binding to monomeric rTau (ATTO633-monomeric tau): no significant binding
Structure (SMILES): CC[C@H](C)[C@H](NC(=O)[C@H](CCC(N)=O)NC(=O)[C@H](Cc1c[nH]c2ccccc12)NC(=O)[C@H](CCCNC(=N)N)NC(=O)[C@H](CO)NC(=O)CNC(=O)[C@H](CCCNC(=N)N)NC(=O)[C@H](CCCCN)NC(=O)[C@H](Cc1ccc(O)cc1)NC(=O)[C@@H](NC(=O)[C@@H](NC(=O)[C@H](CCC(N)=O)NC(=O)[C@H](Cc1c[nH]c2ccccc12)NC(=O)[C@@H](N)CCCNC(=N)N)[C@@H](C)CC)C(C)C)C(=O)N[C@H](C(=O)N[C@@H](Cc1ccc(O)cc1)C(=O)N[C@@H](CCCCN)C(=O)N[C@@H](CCCNC(=N)N)C(=O)O)C(C)C [CAP1] (H-RWQIVYKRGSRWQIVYKR-OH; N-terminus and C-terminus assumed)
inhibition of self-assembly of the PHF6 hexapeptide [1]: successfully inhibited; also recorded: inhibits | inhibition of heparin-induced aggregation of rTau [2]: successfully inhibited; also recorded: inhibits | seed propagation of AD patient brain extracts (fraction of cells containing tau inclusions) [3]: significantly reduces
